Data as given in PMC5074515 (PLoS ONE, 2016).
Values after ≈ are worked out from the molar mass of the structure shown. Like-named read-outs stand apart in the source and are kept apart here.

Columns and labels:
Mtb H37Ra (ATCC 25177) = test: In vitro screen versus Mtb H37Ra (Alamar blue microdilution broth assay, MIC99); assay type: cell-based, M. tuberculosis; conditions: Mycobacterium tuberculosis; lowest drug concentration that completely inhibited growth; read-out: Mtb H37Ra MIC99
Procedure: The initial screening set and selected other compounds were tested for their inhibitory activity against Mtb H37Ra (ATCC 25177) and MAC NJ211 strains. Screening was performed at 1.28 and 12.8 μg/mL in Middlebrook 7H9 broth supplemented with 0.2% glycerol and ADC enrichment using a colorimetric (Alamar blue) microdilution broth assay by reported methods.[15]

Mtb H37Rv = test: In vitro qHTS assay against Mtb H37Rv (IC90); assay type: cell-based, M. tuberculosis; conditions: for IC90 / Mtb H37Rv IC90: concentration that inhibits bacterial growth by 90%; for IC90: read-out: Mtb H37Rv IC90
[1] = Mycobacterium tuberculosis, H37RV

Row | Molecule | IC90 (Mtb H37Rv; [1]) | melting point | other results
1 | CC(=O)O[C@H]1C(=O)[C@@]2(C)[C@H]([C@H](OC(=O)c3ccccc3)[C@]3(O)C[C@H](OC(=O)[C@H](O)[C@@H](NC(=O)c4ccccc4)c4ccccc4)C(C)=C1C3(C)C)[C@]1(OC(C)=O)CO[C@@H]1C[C@@H]2O [Compound 14, Taxol] | – | – | MIC99 (Mtb H37Ra (ATCC 25177)): 16 µg/mL (≈ 18.7 µM)
2 | CCN(CC)CCNC(=O)CC1=C(C)/C(=C/c2ccc(SC)cc2)c2ccc(F)cc21 [Compound 20, (Z)-N-(2-(Diethylamino)ethyl)-2-(5-fluoro-2-methyl-1-(4-(methylthio)benzylidene)-1H-inden-3-yl)acetamide] | 3.59 ± 0.06 µM | 98 to 100 °C | –
3 | CCN(CC)CCCNC(=O)CC1=C(C)/C(=C/c2ccc(SC)cc2)c2ccc(F)cc21 [Compound 21, (Z)-N-(3-(Diethylamino)propyl)-2-(5-fluoro-2-methyl-1-(4-(methylthio)benzylidene)-1H-inden-3-yl)acetamide] | 4.36 ± 0.07 µM | 78 to 81 °C | –
4 | CSc1ccc(/C=C2/C(C)=C(CC(=O)NCCCN3CCCCC3C)c3cc(F)ccc32)cc1 (centres unmarked) [Compound 25, (Z)-2-(5-Fluoro-2-methyl-1-(4-(methylthio)benzylidene)-1H-inden-3-yl)-N-(3-(2-methylpiperidin-1-yl)propyl)acetamide] | 5.41 ± 0.11 µM | 84 to 86 °C | –
5 | CSc1ccc(/C=C2/C(C)=C(CC(=O)NCCC3CCCN3C)c3cc(F)ccc32)cc1 (centres unmarked) [Compound 27, (Z)-2-(5-Fluoro-2-methyl-1-(4-(methylthio)benzylidene)-1H-inden-3-yl)-N-(2-(1-methylpyrrolidin-2-yl)ethyl)acetamide] | 4.34 ± 0.16 µM | – | –
6 | CCN1CCC[C@H]1CNC(=O)CC1=C(C)/C(=C/c2ccc(SC)cc2)c2ccc(F)cc21 [Compound 28, (S,Z)-N-((1-Ethylpyrrolidin-2-yl)methyl)-2-(5-fluoro-2-methyl-1-(4-(methylthio)benzylidene)-1H-inden-3-yl)acetamide] | 3.98 ± 0.03 µM | 74 to 76 °C | –
7 | CSc1ccc(/C=C2/C(C)=C(CC(=O)N3CCC[C@H]3CN3CCCC3)c3cc(F)ccc32)cc1 [Compound 29, (S,Z)-2-(5-Fluoro-2-methyl-1-(4-(methylthio)benzylidene)-1H-inden-3-yl)-1-(2-(pyrrolidin-1-ylmethyl)pyrrolidin-1-yl)ethanone] | 4.06 ± 0.03 µM | 101 to 104 °C | –
8 | CSc1ccc(/C=C2/C(C)=C(CC(=O)N3CCC(N4CCCCC4)CC3)c3cc(F)ccc32)cc1 [Compound 30, (Z)-1-([1,4'-Bipiperidin]-1'-yl)-2-(5-fluoro-2-methyl-1-(4-(methylthio)benzylidene)-1H-inden-3-yl)ethanone] | 2.75 ± 0.02 µM | 145 to 148 °C | –
9 | CSc1ccc(/C=C2/C(C)=C(CC(=O)N3CCN(CCCN(C)C)CC3)c3cc(F)ccc32)cc1 [Compound 31, (Z)-1-(4-(3-(Dimethylamino)propyl)piperazin-1-yl)-2-(5-fluoro-2-methyl-1-(4-(methylthio)benzylidene)-1H-inden-3-yl)ethanone] | 9.55 ± 0.31 µM | 131 to 134 °C | –
10 | CSc1ccc(/C=C2/C(C)=C(CC(=O)N3CCN(c4ccncc4)CC3)c3cc(F)ccc32)cc1 [Compound 32, (Z)-2-(5-Fluoro-2-methyl-1-(4-(methylthio)benzylidene)-1H-inden-3-yl)-1-(4-(pyridin-4-yl)piperazin-1-yl)ethanone] | 3.07 ± 0.04 µM | 171 to 174 °C | –
11 | CSc1ccc(/C=C2/C(C)=C(CC(=O)NCCCn3ccnc3)c3cc(F)ccc32)cc1 [Compound 33, (Z)-N-(3-(1H-Imidazol-1-yl)propyl)-2-(5-fluoro-2-methyl-1-(4-(methylthio)benzylidene)-1H-inden-3-yl)acetamide] | 1.18 ± 0.01 µM | 103 to 105 °C | –
12 | CSc1ccc(/C=C2/C(C)=C(CC(=O)NCc3ccccc3)c3cc(F)ccc32)cc1 [Compound 34, (Z)-N-Benzyl-2-(5-fluoro-2-methyl-1-(4-(methylthio)benzylidene)-1H-inden-3-yl)acetamide] | > 100 µM | 171 to 174 °C | Mtb H37Rv IC90 (Mtb H37Rv): inactive
13 | CSc1ccc(/C=C2/C(C)=C(CC(=O)NCc3ccco3)c3cc(F)ccc32)cc1 [Compound 36, (Z)-2-(5-Fluoro-2-methyl-1-(4-(methylthio)benzylidene)-1H-inden-3-yl)-N-(furan-2-ylmethyl)acetamide] | > 100 µM | 166 to 168 °C | Mtb H37Rv IC90 (Mtb H37Rv): inactive
14 | COC(=O)[C@H](C)NC(=O)CC1=C(C)/C(=C/c2ccc(SC)cc2)c2ccc(F)cc21 [Compound 37, (S,Z)-Methyl 2-(2-(5-fluoro-2-methyl-1-(4-(methylthio)benzylidene)-1H-inden-3-yl)acetamido)propanoate] | 3.04 ± 0.1 µM | 151 to 154 °C | –
15 | CC1=C(CC(=O)NCCN2CCCC2)c2cc(F)ccc2/C1=C\c1nc2ccccc2s1 [Compound 41, (Z)-2-(1-(Benzo[d]thiazol-2-ylmethylene)-5-fluoro-2-methyl-1H-inden-3-yl)-N-(2-(pyrrolidin-1-yl)ethyl)acetamide] | 6.7 ± 0.04 µM | – | –
16 | CSc1ccc(/C=C2/C(C)=C(C(C)C(=O)NCCN(C)C)c3cc(F)ccc32)cc1 (centres unmarked) [Compound 44, (Z)-N-(2-(Dimethylamino)ethyl)-2-(5-fluoro-2-methyl-1-(4-(methylthio)benzylidene)-1H-inden-3-yl)propanamide] | 13.6 ± 0.89 µM | – | fold less active against Mtb H37Rv than desmethyl analog (Mtb H37Rv; 44 vs 18): 2 fold
17 | CSc1ccc(/C=C2/C(C)=C(C(C)C(=O)N(C)CCN(C)C)c3cc(F)ccc32)cc1 (centres unmarked) [Compound 45, (Z)-N-(2-(Dimethylamino)ethyl)-2-(5-fluoro-2-methyl-1-(4-(methylthio)benzylidene)-1H-inden-3-yl)-N-methylpropanamide] | 5.95 ± 0.06 µM | – | –
18 | CNCCN(C)C(=O)C(C)C1=C(C)/C(=C/c2ccc(SC)cc2)c2ccc(F)cc21 (centres unmarked) [Compound 48, (Z)-2-(5-Fluoro-2-methyl-1-(4-(methylthio)benzylidene)-1H-inden-3-yl)-N-methyl-N-(2-(methylamino)ethyl)propanamide] | 2.11 ± 0.08 µM | – | fold more active against Mtb H37Rv than corresponding analog (Mtb H37Rv; 48 vs 23, 57 vs 56, 60 vs 24): 4 fold
19 | CSc1ccc(/C=C2/C(C)=C(C(C)C(=O)NCCN3CCCCC3)c3cc(F)ccc32)cc1 (centres unmarked) [Compound 49, (Z)-2-(5-Fluoro-2-methyl-1-(4-(methylthio)benzylidene)-1H-inden-3-yl)-N-(2-(piperidin-1-yl)ethyl)propanamide] | 1.99 ± 0.06 µM | – | –
20 | CCN1CCC[C@H]1CNC(=O)C(C)C1=C(C)/C(=C/c2ccc(SC)cc2)c2ccc(F)cc21 (stereo partly drawn) [Compound 51, N-(((S)-1-Ethylpyrrolidin-2-yl)methyl)-2-((Z)-5-fluoro-2-methyl-1-(4-(methylthio)benzylidene)-1H-inden-3-yl)propanamide] | 2.41 ± 0.04 µM | – | –
21 | CSc1ccc(/C=C2/C(C)=C(C(C)C(=O)N3CCN(c4ccncc4)CC3)c3cc(F)ccc32)cc1 (centres unmarked) [Compound 55, (Z)-2-(5-Fluoro-2-methyl-1-(4-(methylthio)benzylidene)-1H-inden-3-yl)-1-(4-(pyridin-4-yl)piperazin-1-yl)propan-1-one] | 2.89 ± 0.09 µM | – | –
22 | (Z)-N-(3-(Dibutylamino)propyl)-2-(5-fluoro-2-methyl-1-(4-(methylthio)benzylidene)-1H-inden-3-yl)acetamide [Compound 22] | – | – | IC90 (Mtb H37Rv): 0.85 µM
